Source: patent US20180282281A1, “IMMUNOREGULATORY AGENTS” (FLEXUS BIOSCIENCES, INC., priority 2014, published 2018)

Target: T1, human IDO1 (Homo sapiens, UniProt P14902)
T1 construct: expressed in transfected cells
Test: HEK293 human IDO1 cell-based IDO inhibition assay
Conditions: read-out: HEK Human IDO-1 Potency
Outline: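 HEK293 cells stably expressing human IDO1, 10,000/well in RPMI with 10% FBS, treated with compound 20 h at 37 °C. Stopped with 0.2% final TCA, 50 °C for 30 min; supernatant mixed with 0.2% Ehrlich reagent in acetic acid, 30 min RT, absorbance read at 490 nm.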

T1 sequence (P14902 whole entry): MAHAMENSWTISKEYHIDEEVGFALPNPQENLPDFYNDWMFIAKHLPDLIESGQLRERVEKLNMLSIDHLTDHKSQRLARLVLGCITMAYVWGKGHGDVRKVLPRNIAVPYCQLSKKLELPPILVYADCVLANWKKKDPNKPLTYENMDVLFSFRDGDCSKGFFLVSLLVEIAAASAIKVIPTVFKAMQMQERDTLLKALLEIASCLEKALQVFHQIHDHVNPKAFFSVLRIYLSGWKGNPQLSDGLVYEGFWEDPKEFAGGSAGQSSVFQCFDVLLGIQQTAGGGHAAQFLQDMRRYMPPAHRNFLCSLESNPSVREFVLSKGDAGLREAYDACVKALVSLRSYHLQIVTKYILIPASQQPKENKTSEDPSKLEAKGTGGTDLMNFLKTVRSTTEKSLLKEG

Structure (SMILES)	IC50 [nM]
CC(C)C(C(=O)Nc1ccc(Cl)cc1)N1CCC(Oc2ccnc3ccc(F)cc23)CC1 (racemic) [Example 102, (±)—N-(4-Chlorophenyl)-2-(4-((6-fluoroquinolin-4-yl)oxy)piperidin-1-yl)-3-methylbutanamide]	> 250
Cc1ccc(NC(=O)CC2(C)CCN(c3ccnc4ccc(F)cc34)CC2)cc1 [Example 121]	> 250
CC(C(=O)Nc1ccc(Cl)cc1)N1CCN(c2ccnc3ccc(F)cc23)CC1 (racemic) [Example 126, (±)—N-(4-Chlorophenyl)-2-(4-(6-fluoroquinolin-4-yl)piperazin-1-yl)propanamide]	> 250
Cc1cc(Cl)ccc1NC(=O)CC1CCN(c2ccnc3ccc(F)cc23)CC1 [Example 119]	> 250
CCC(C(=O)Nc1ccccc1)N1CCN(c2ccnc3ccc(F)cc23)CC1 (racemic) [Example 132, (±)-2-(4-(6-Fluoroquinolin-4-yl)piperazin-1-yl)-N-phenylbutanamide]	> 250
CCC(C(=O)Nc1ccc(Cl)cc1)N1CCC(Oc2ccnc3ccc(F)cc23)CC1 (stereo not shown) [compound 111]	< 250

The remaining lines, values ahead:

IC50 [nM]	Structure (SMILES)
< 50	CC(C(=O)O)c1ccc(C[C@@H](C(=O)Nc2ccc(Cl)cc2)[C@H]2CC[C@@H](c3ccnc4ccc(F)cc43)CC2)cc1 (single isomer, unassigned) [Example 138]
< 50	CC(C(=O)Nc1ccc(Cl)cc1)N1CCC(Oc2ccc3nccc(Cl)c3c2)CC1 (single isomer, unassigned) [Example 93]
< 50	C[C@@H](C(=O)Nc1ccc(Cl)cc1)[C@H]1CC[C@@H](c2ccnc3c2ncn3C)CC1 (single isomer, unassigned) [Example 251a, N-(4-chlorophenyl)-2-(4-(3-methyl-3H-imidazo[4,5-b]pyridin-7-yl)cyclohexyl)propanamide]
< 50	C[C@@H](C(=O)Nc1ccc(Cl)cc1)[C@H]1CC[C@H](c2ccnc3cn[nH]c32)CC1 (single isomer, unassigned) [Example 150d]
